# Reference: patent US5997501A, “Intradermal drug delivery device” (Elan Corporation, plc, priority 1993, dated 1999)
# Assays:
# [1] = assay type: in vivo, New Zealand white rabbits; settings: 1000 IU/h for 5 hours from device
# Source text: (§1) Devices manufactured according to the present invention were used to study the delivery of insulin, heparin and salmon calcitonin to New Zealand white rabbits weighing between 2.5 kg and 3.5 kg. Hair was removed from the dorsal surface of the animal using an electric clipper twenty-fours prior to application of the device. Arterial blood samples were withdrawn for determination of plasma concentration of drug through an indwelling cannula placed in the ear artery.
# Delivery of heparin from devices according to the present invention was studied by administering heparin at a rate of 1000 IU/h for 5 hours. Plasma heparing was assayed using an EIA method.
# blood glucose [2] = assay: Blood glucose concentration in rabbits after intradermal device infusion of insulin (Example 1, FIG. 19); assay type: in vivo, rabbit; settings: for mean blood glucose concentration: control value 6.25 mmol/l
# Procedure: A device according to the present invention containing 0.6 ml of a solution of insulin (100 I.U./ml) was affixed to each of two rabbits and the devices were switched on. The insulin solution was infused at a rate of 0.1 ml/hour for two hours. […] At one hour, mean blood glucose concentration had fallen from a control value of 6.25 mmol/l to 3.2 mmol/l. This value stayed relatively constant at 1.5 hours following activation (2.65 mmol/l) and at 2 hours (2.5 mmol/l), at which time the devices were removed.
# [3] = Plasma insulin concentration (RIA) in rabbits during device delivery of insulin (Example 3); assay type: in vivo, New Zealand white rabbits; settings: 5 IU/h, time=3h
# Source text: as §1
# (§2) Diabetes was induced in test rabbits by administration intravenously of a 150 mg/kg dose of alloxan (monohydrate) to fasted rabbits. The rabbits were provided with a dextrose solution for three days after alloxan administration and after this time normal diet was resumed. Test animals were maintained healthy with a commercial insulin preparation prior to the study. The devices were attached to the rabbits and delivery of insulin at a rate of 5 IU/h was commenced to normoglycaemic animals (for 3 hours) and to diabetic animals (for 3.25 hours). Whole blood glucose concentrations were measured using an Ames glucometer and plasma insulin concentration were measured using a RIA method.
# blood glucose [4] = assay: Whole blood glucose concentration (Ames glucometer) in rabbits during device delivery of insulin (Example 3); assay type: in vivo, New Zealand white rabbits; settings: normal and diabetic animals; 5 IU/h
# Source text: as §1, §2
# serum calcium = assay: Serum calcium concentration in rabbits after intradermal device infusion of salmon calcitonin (Example 2, FIG. 20); assay type: in vivo, rabbit; settings: for mean serum calcium concentration, % of control value: 1.0 mg/ml at 0.1 ml/hour for 6 hours, four rabbits
# Procedure: A device according to the present invention containing 0.6 ml of a solution of salmon calcitonin (1.0 mg/ml) was affixed to each of four rabbits. This solution was infused at the rate of 0.1 ml/hour for 6 hours. Serum calcium concentrations were measured via an ear vein at 0, 0.5, 1, 2, 3, 4, 5 and 6 hours following activation of the device, at which point the device was removed.
# [5] = Delivery of calcitonin from device compared with conventional subcutaneous injection (plasma calcitonin by EIA, plasma calcium by photometric analysis); assay type: in vivo, New Zealand white rabbits
# Source text: as §1
# To compare delivery of calcitonin using devices according to the present invention to conventional delivery, 40 IU calcitonin was delivered to a rabbit over 2 hours from a device according to the present invention and 20 IU calcitonin was delivered by a conventional single subcutaneous injection. In a further study, calcitonin was delivered at a rate of 25 IU/h and 100 IU/h for a period of 6 hours from devices according to the present invention. Plasma concentrations of calcium were measured using a photometric analysis while calcitonin concentrations were measured by an EIA method.
substance,measurement,setting,value
heparin,amounts of heparin delivered,[1],significant anticoagulant amounts
insulin: solution of insulin (100 I.U./ml),mean blood glucose concentration,"blood glucose [2]; 1 hour following activation, 100 I.U./ml at 0.1 ml/hour, two rabbits",3.2 mmol/L
same,mean blood glucose concentration,"blood glucose [2]; 1.5 hours following activation, 100 I.U./ml at 0.1 ml/hour",2.65 mmol/L
same,mean blood glucose concentration,"blood glucose [2]; 2 hours following activation (devices removed), 100 I.U./ml at 0.1 ml/hour",2.5 mmol/L
same,"mean blood glucose, course after device removal",blood glucose [2]; later than one hour after device removal,continued to rise with time
same,mean blood glucose concentration,blood glucose [2]; one hour after device removal,3.7 mmol/L
same,plasma insulin concentration,"[3]; diabetic (alloxan) rabbits, approximately 10 fmol/ml at time 0",approximately 240 fmol/ml
same,plasma insulin concentration,"[3]; normal (normoglycaemic) rabbits, approximately 25 fmol/ml at time 0",approximately 275 fmol/ml
same,"blood glucose concentration, change",blood glucose [4],corresponding decrease in blood glucose concentration was observed for both normal and diabetic animals
salmon calcitonin,"mean calcium concentrations, course","serum calcium; 0 to 6 hours, 0.1 ml/hour",fell steadily throughout the period of application
same,"mean serum calcium concentration, % of control value",serum calcium; 5 hours following activation,62.5%
same,"mean serum calcium concentration, % of control value",serum calcium; 6 hours following activation,66.6%
same,"delivery of calcitonin, dose proportionality",[5]; 25 IU/h and 100 IU/h for 6 hours from devices,dose proportional
same,delivery of calcitonin compared with conventional routes,[5]; 40 IU over 2 hours from device vs 20 IU single subcutaneous injection,comparable to that from conventional routes
